For six compounds, Activity and viability results are on record in ChEMBL document CHEMBL1152890, “Synthesis and evaluation of a novel series of heterocyclic oleanolic acid derivatives with anti-osteoclast formation activity” (Eur J Med Chem, 2009).

The nature of series [1]: Antiosteoclast activity in ICR mouse osteoblast like cells co-cultured with bone marrow cells assessed as effect on 1-alpha,25(OH)2D3-induced TRAP-positive osteoclast like multinucleated cell formation at 20 uM after 6 days medium replaced every 2 days relative to control. In kind it is functional.
Series [2] in a line: Antiosteoclast activity in ICR mouse osteoblast like cells co-cultured with bone marrow cells assessed as effect on 1-alpha,25(OH)2D3-induced TRAP-positive osteoclast like multinucleated cell formation at 2 uM after 6 days medium replaced every 2 days relative to control. In kind it is functional.
Series [3] can be described thus: Antiosteoclast activity in ICR mouse osteoblast like cells co-cultured with bone marrow cells assessed as recovery of 1-alpha,25(OH)2D3-induced TRAP-positive osteoclast like multinucleated cell formation at 2 uM after 6 days drug removal after 2 days relative to control. In kind it is functional.
Series [4] can be described thus: Cytotoxicity against ICR mouse osteoblast like cells assessed as cell viability at 2 uM after 4 days drug removal after 2 days by MTT assay relative to control. In kind it is cell-based. The settings on record: read-out: Activity.
Series [5] can be described thus: Antiosteoclast activity in ICR mouse osteoblast like cells co-cultured with bone marrow cells assessed as recovery of 1-alpha,25(OH)2D3-induced TRAP-positive osteoclast like multinucleated cell formation at 20 uM after 6 days drug removal after 2 days relative to control. In kind it is functional.
The nature of series [6]: Antiosteoclast activity in ICR mouse osteoblast like cells co-cultured with bone marrow cells assessed as effect on 1-alpha,25(OH)2D3-induced TRAP-positive osteoclast like multinucleated cell formation at 200 uM after 6 days medium replaced every 2 days relative to control. It counts as functional.

Molecules are shown by their SMILES.

Regarding `CC1(C)CC[C@]2(C(=O)O)CC[C@]3(C)C(=CC[C@@H]4[C@@]5(C)Cc6cc7ccccc7nc6C(C)(C)[C@@H]5CC[C@]43C)[C@@H]2C1`, the Activity in series [1] is on record as 33.2%; in series [2] it was 39.2%; in series [3], 73%; in series [5] it was 18.9%; in series [6] it was 97.2%. Besides, the viability at 96 h, 2 µM in series [4] stood at 134%.

For the compound `COC(=O)CNC(=O)[C@]12CCC(C)(C)C[C@H]1C1=CC[C@@H]3[C@@]4(C)CCC(=O)C(C)(C)[C@@H]4CC[C@@]3(C)[C@]1(C)CC2`, the Activity was 0% in series [1]; 27.2% in series [2]; 73.9% in series [3]; 41.3% in series [5]; 31.7% in series [6]. Further, the viability at 96 h, 2 µM in series [4] came out at 141%.

For the compound `CC1(C)CC[C@]2(C(=O)O)CC[C@]3(C)C(=CC[C@@H]4[C@@]5(C)Cc6c([nH]c7ccc(Cl)cc67)C(C)(C)[C@@H]5CC[C@]43C)[C@@H]2C1`, the Activity is given as 0% in series [1]; 13% in series [2]; 73.3% in series [3]; 0% in series [5]; 99.5% in series [6]. The viability at 96 h, 2 µM in series [4] worked out at 132%.

Turning to `CC[C@H](C)[C@H](NC(=O)[C@]12CCC(C)(C)C[C@H]1C1=CC[C@@H]3[C@@]4(C)Cc5nccnc5C(C)(C)[C@@H]4CC[C@@]3(C)[C@]1(C)CC2)C(=O)O`, the Activity in series [1] was 73.7%; in series [2], 16.2%; in series [3], 81.3%; in series [6], 52.6%. The viability at 96 h, 2 µM in series [4] was determined as 109%.

Consider `COC(=O)[C@@H](NC(=O)[C@]12CCC(C)(C)C[C@H]1C1=CC[C@@H]3[C@@]4(C)Cc5nccnc5C(C)(C)[C@@H]4CC[C@@]3(C)[C@]1(C)CC2)C(C)C`, for which the Activity in series [1] is 27.8%; in series [2], 59.8%; in series [3], 77.6%; in series [5], 73.1%; in series [6] it was 78.4%. For the same compound, in series [4], the viability at 96 h, 2 µM was determined as 142%.

For the compound `CC(C)[C@H](NC(=O)[C@]12CCC(C)(C)C[C@H]1C1=CC[C@@H]3[C@@]4(C)Cc5nc6ccccc6nc5C(C)(C)[C@@H]4CC[C@@]3(C)[C@]1(C)CC2)C(=O)O`, the Activity in series [1] was 42.8%; in series [2] it was 47.3%; in series [3], 70.6%; in series [6] it was 57.5%. Also, the viability at 96 h, 2 µM in series [4] was found to be 128%.
